Assay results as given in patent publication US20130005568A1, “SAFENED HERBICIDAL MIXTURES” (E.I. DU PONT DE NEMOURS AND COMPANY, priority 2011, published 2013).

How the values were obtained:
[1] = system: Creeping bentgrass; assay: Test G: turf grass and weed postemergence plant response rating; type: in vivo, Agrostis stoonoifera L.; details: Compound 1 alone 125 g ai/ha; Test G plants
Source text: (§1) For all of the following biological tests, plant response ratings were based on a 0-100 scale where zero is growth equivalent to that of untreated plants (no plant response) and 100 represents no additional growth occurring after herbicide treatment.
(§2) Plants of the turf grass species: zoysia (Zoysia japonica Steud.), bermudagrass (Cynodon dactylon (L.) Pers.), tall fescue (Festuca arundinacea Shreib.), creeping bentgrass (Agrostis stoonoifera L.), perennial ryegrass (Lolium perenne L.) and hard fescue (Festuca species) were grown under greenhouse conditions for four months. Plants were clipped as needed to plant heights of 5-10 cm. Weeds typically found in turf: annual bluegrass (Poa annua L.), common chickweed (Stellaria media (L.) Vill.), large crabgrass (Digitaria sanguinales (L.) Scop.), dandelion (Taraxacum officinale Weber in Wiggers), goosegrass (Eleusine indica (L.) Gaertn.), henbit (Lamium amplexicaule L.), venice mallow (Hibiscus trionium L.) and purple nutsedge (Cyperus rotundus L.) were also grown under greenhouse conditions so that plants were 5-20 cm tall when they were treated. Herbicide mixtures were formulated, dissolved/dispersed in water containing 0.25% non-ionic surfactant, and sprayed postemergence to these turf grasses and weeds. Treated plants were grown under greenhouse conditions for three weeks before visual evaluations of plant responses were recorded.

[2] = system: winter wheat; assay: Test F: preemergence plant response rating; type: in vivo, Triticum aestivum L.; details: Compound 1 alone 125 g ai/ha; Test F plants
Source text: as §1
Herbicide mixtures were formulated, dissolved/dispersed in water, and sprayed preemergence to the crops: winter wheat (Triticum aestivum L.) and winter barley (Hordeum vulgare L.), and the weed: blackgrass (Alopecurus myosuroides Huds). Treated plants were grown under greenhouse conditions for three weeks before visual evaluations of plant responses were recorded.

[3] = system: Purple nutsedge; assay: Test G: turf grass and weed postemergence plant response rating; type: in vivo, Cyperus rotundus L.; details: Compound 1 alone 125 g ai/ha; Test G plants
Source text: as §1, §2

[4] = system: Pioneer 39K40 hybrid maize; assay: Test A: visual plant response rating, postemergence herbicide treatments alone and with Compound 1; type: in vivo, Zea mays L. spp. indentata Sturt.; details: Compound 1 alone 125 g ai/ha; Test A
Description: as §1
Pioneer 39K40 hybrid maize used in this test (and also Tests B and C) is particularly sensitive to herbicides that inhibit the acetohydroxy acid synthase enzyme. Herbicide mixtures were dissolved/dispersed in a non-phytotoxic liquid carrier and were sprayed postemergence to Pioneer 39K40 hybrid maize (Zea mays L. spp. indentata Sturt.) in the third collar growth stage (extended leaf height was 50-60 cm). Treated plants were grown under greenhouse conditions for two weeks before visual evaluations of plant responses were recorded.

[5] = system: winter barley; assay: Test E: postemergence plant response rating; type: in vivo, Hordeum vulgare L.; details: Compound 1 alone 125 g ai/ha; Test E plants
Source text: as §1
(§3) Herbicide mixtures were formulated, dissolved/dispersed in water containing 0.25% non-ionic surfactant, sprayed postemergence to the crops: winter wheat (Triticum aestivum L.), spring wheat (Triticum aestivum L.), winter barley (Hordeum vulgare L.) and spring barley (Hordeum vulgare L.), and the weeds: blackgrass (Alopecurus myosuroides Huds.), lambsquarters (Chenopodium album L.) and pigweed (Amaranthus retroflexus L.). Treated plants were grown under greenhouse conditions for two weeks before visual evaluations of plant responses were recorded.

[6] = system: spring barley; assay: Test E: postemergence plant response rating; type: in vivo, Hordeum vulgare L.; details: Compound 1 alone 125 g ai/ha; Test E plants
Source text: as §1, §3

[7] = system: winter wheat; assay: Test E: postemergence plant response rating; type: in vivo, Triticum aestivum L.; details: Compound 1 alone 125 g ai/ha; Test E plants
Source text: as §1, §3

[8] = system: spring wheat; assay: Test E: postemergence plant response rating; type: in vivo, Triticum aestivum L.; details: Compound 1 alone 125 g ai/ha; Test E plants
Source text: as §1, §3

[9] = system: Annual bluegrass; assay: Test G: turf grass and weed postemergence plant response rating; type: in vivo, Poa annua L.; details: Compound 1 alone 125 g ai/ha; Test G plants
Source text: as §1, §2

[10] = system: velvetleaf; assay: Test I: postemergence plant response rating; type: in vivo, Abutilon theophrasti Medik.; details: Compound 1 alone 125 g ai/ha; Test I plants
Source text: as §1
(§4) Herbicide mixtures were formulated, dissolved/dispersed in water containing 0.25% non-ionic surfactant, and sprayed postemergence to the crop: soybean (Glycine max (L.) Merr.) at the 2-leaf growth stage and to weeds: lambsquarters (Chenopodium album L.) and velvetleaf (Abutilon theophrasti Medik.). Weed species were 5-10 cm tall when treated. Treated plants were grown under greenhouse conditions for two weeks before visual evaluations of plant responses were recorded.

[11] = system: Perennial ryegrass; assay: Test G: turf grass and weed postemergence plant response rating; type: in vivo, Lolium perenne L.; details: Compound 1 alone 125 g ai/ha; Test G plants
Source text: as §1, §2

[12] = system: pigweed; assay: Test E: postemergence plant response rating; type: in vivo, Amaranthus retroflexus L.; details: Compound 1 alone 125 g ai/ha; Test E plants
Source text: as §1, §3

[13] = system: Chickweed; assay: Test G: turf grass and weed postemergence plant response rating; type: in vivo, Stellaria media (L.) Vill.; details: Compound 1 alone 125 g ai/ha; Test G plants
Source text: as §1, §2

[14] = system: Venice mallow; assay: as above; type: in vivo, Hibiscus trionium L.; details: Compound 1 alone 125 g ai/ha; Test G plants
Source text: as §1, §2

[15] = system: Surinam grass; assay: Test K: pasture grass postemergence plant response rating, field conditions; type: in vivo, Brachiaria decumbens Stapf; details: Compound 1 alone 140 g ai/ha; Test K plants
Source text: as §1
Herbicide mixtures were formulated, dissolved/dispersed in water containing 0.25% non-ionic surfactant, and sprayed postemergence to the pasture grasses: Surinam grass (Brachiaria decumbens Stapf), palisade grass (Brachiaria brizantha (Hochst. ex A. Rich) Stapf) and Alexandergrass (Brachiaria plantaginea (Link) A. S. Hitchc.) approximately 10-30 cm tall (extended leaf height). This test was conducted under field conditions. Visual evaluations of plant responses were recorded four weeks after the plants were treated.

[16] = system: Goosegrass; assay: Test G: turf grass and weed postemergence plant response rating; type: in vivo, Eleusine indica (L.) Gaertn.; details: Compound 1 alone 125 g ai/ha; Test G plants
Source text: as §1, §2

[17] = system: Dandelion; assay: as above; type: in vivo, Taraxacum officinale Weber in Wiggers; details: Compound 1 alone 125 g ai/ha; Test G plants
Source text: as §1, §2

[18] = system: lambsquarters; assay: Test I: postemergence plant response rating; type: in vivo, Chenopodium album L.; details: Compound 1 alone 125 g ai/ha; Test I plants
Source text: as §1, §4

[19] = system: Tall fescue; assay: Test G: turf grass and weed postemergence plant response rating; type: in vivo, Festuca arundinacea Shreib.; details: Compound 1 alone 125 g ai/ha; Test G plants
Source text: as §1, §2

Measured: injury, Compound 1 alone

Cc1ccccc1S(=O)(=O)NC(N)=O [Compound 1, N-(aminocarbonyl)-2-methylbenzenesulfonamide]
no injury: all assays above
